Data on eleven compounds can be found in ChEMBL document CHEMBL1201862, “PubChem BioAssay data set” (2004).

Some test systems named below: T47D; A549; SF-539; OVCAR-4; 786-0; PC-3; SW-620; COLO 205; MOLT-4; SN12C; IGROV-1; NCI-H522; OVCAR-8; HT-29; NCI-H23; HOP-92; HCT-15; UO-31; UACC-62.
Holding throughout (assay): NCI anticancer screen, dose series, 48 h

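Results reflect a 48-hour exposure of cells in 96-well plates to compound at five concentrations. The concentration for 50% growth inhibition is given as GI50.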 Calls of active or inactive are those of the source. Cut-off read from the data, not from the text of the source: active = GI50 up to about 1.1 µM and inactive = higher.

Take `CC1CCC2CC1NC(=O)CCOCCC(=O)NC2(C)C` (configuration not stated): the GI50 in the test with T47D, in the test on A549, in the test on SF-539, in the test on OVCAR-4, with 786-0 and with PC-3 was > 100 µM (inactive) each time. For the same compound, the GI50 in the test with SW-620, with COLO 205, with MOLT-4, in the test with SN12C, in the test on IGROV-1 and in the test on NCI-H522 was > 100 µM (inactive) in each case. The GI50 in the test on OVCAR-8 is > 100 µM (inactive); with HT-29, > 100 µM (inactive); with NCI-H23 it was > 100 µM (inactive); in the test with HOP-92, > 100 µM (inactive); in the test on HCT-15 it was > 100 µM; in the test on UO-31, > 100 µM (inactive). The GI50 with UACC-62 was > 100 µM (inactive).

As for `O=[N+]([O-])c1nccn1CCCNc1c2ccccc2[n+]([O-])c2ccccc12`, the GI50 with T47D was > 100 µM (inactive); with A549 it was > 100 µM (inactive); in the test with SF-539 it was > 100 µM (inactive); with OVCAR-4, 50.2 µM (inactive); in the test with 786-0, > 100 µM (inactive); with PC-3, > 100 µM (inactive). For the same compound, the GI50 was > 100 µM (inactive) in the test with SW-620; 18.2 µM (inactive) with COLO 205; > 100 µM (inactive) in the test with MOLT-4; > 100 µM (inactive) in the test with SN12C; 51.9 µM (inactive) with IGROV-1; > 100 µM (inactive) with NCI-H522. For the same compound, the GI50 with OVCAR-8 was > 100 µM (inactive); with HT-29, 43.6 µM (inactive); in the test with NCI-H23, > 100 µM (inactive); in the test on HOP-92, 27.5 µM (inactive); in the test on HCT-15, > 100 µM; in the test with UO-31, > 100 µM (inactive). Moreover, the GI50 with UACC-62 was > 100 µM (inactive).

Regarding `CC(=O)O[C@@H]1[C@H](OC2CCCCC2(c2ccccc2)c2ccccc2)O[N+]([O-])=CC12CCCCC2` (some centres not stated), the GI50 in the test with T47D is 18.4 µM (inactive); in the test on A549 it was 17.7 µM (inactive); in the test with SF-539, 20 µM (inactive); in the test on 786-0, 13.4 µM (inactive); in the test on PC-3, 10.8 µM (inactive); in the test on SW-620, 16 µM (inactive). Moreover, the GI50 with COLO 205 was 16.4 µM (inactive); in the test on MOLT-4, 52 µM (inactive); with SN12C, 19.6 µM (inactive); with IGROV-1, 20.1 µM (inactive); with NCI-H522 it was 18.6 µM (inactive); in the test on OVCAR-8 it was 25.5 µM (inactive). Moreover, the GI50 in the test with HT-29 is 18.6 µM (inactive); in the test with NCI-H23 it was 10.2 µM (inactive); in the test with HOP-92 it was 24.5 µM (inactive); with HCT-15, 16 µM; in the test with UO-31, 17.5 µM (inactive); with UACC-62, 17.7 µM (inactive).

Turning to `COC12c3ccccc3-c3ccccc3C1[C@H]1C(=O)OC(=O)[C@H]12` (some centres not stated), the GI50 with T47D, in the test on SF-539, in the test with OVCAR-4, with 786-0, in the test with PC-3 and in the test on SW-620 was > 10 µM (inactive) in each case. Moreover, the GI50 in the test on COLO 205, in the test on MOLT-4, with SN12C, in the test on IGROV-1, in the test on NCI-H522 and in the test on OVCAR-8 was > 10 µM (inactive) each time. In addition, the GI50 was > 10 µM (inactive) with HT-29; > 10 µM (inactive) in the test on NCI-H23; > 10 µM (inactive) in the test on HOP-92; > 10 µM with HCT-15; > 10 µM (inactive) in the test on UO-31.

Turning to `CC1=NN(c2ccc(S(=O)(=O)O)cc2)C(=O)/C1=C/c1ccc(Cl)cc1.c1ccncc1`, the GI50 in the test on T47D, in the test on A549, in the test with SF-539, with OVCAR-4, in the test on 786-0 and with PC-3 was > 100 µM (inactive) in each case. Further, the GI50 in the test on SW-620, in the test on COLO 205, with MOLT-4, with SN12C, with IGROV-1 and in the test with NCI-H522 was > 100 µM (inactive) in each case. Moreover, the GI50 is > 100 µM (inactive) with OVCAR-8; > 100 µM (inactive) in the test with HT-29; > 100 µM (inactive) in the test on NCI-H23; > 100 µM (inactive) in the test with HOP-92; > 100 µM with HCT-15; > 100 µM (inactive) in the test with UO-31. Also, in the test on UACC-62, the GI50 was > 100 µM (inactive).

For the compound `O=C(Nc1ccc2oc(=O)c(C(=O)O)cc2c1)Oc1ccccc1`, the GI50 in the test with T47D, in the test with A549, with SF-539, in the test with OVCAR-4, in the test on 786-0 and with PC-3 was > 100 µM (inactive) each time. For the same compound, the GI50 in the test with SW-620, in the test on COLO 205, in the test with MOLT-4, with SN12C, in the test with IGROV-1 and in the test with NCI-H522 was > 100 µM (inactive) throughout. Moreover, the GI50 in the test on OVCAR-8 is > 100 µM (inactive); in the test on HT-29 it was > 100 µM (inactive); in the test on NCI-H23 it was > 100 µM (inactive); in the test with HOP-92, > 100 µM (inactive); in the test with HCT-15 it was > 100 µM; in the test with UO-31, > 100 µM (inactive). The GI50 with UACC-62 is > 100 µM (inactive).

Regarding `COc1cccc(C[C@H]2COC(=O)[C@]2(O)Cc2cccc(OC)c2)c1`, the GI50 is 18.1 µM (inactive) with T47D; > 100 µM (inactive) with A549; > 100 µM (inactive) in the test with SF-539; 90.4 µM (inactive) in the test on OVCAR-4; > 100 µM (inactive) with 786-0; > 100 µM (inactive) in the test with PC-3. Moreover, the GI50 was > 100 µM (inactive) with SW-620; > 100 µM (inactive) in the test with COLO 205; 53.1 µM (inactive) in the test with MOLT-4; > 100 µM (inactive) in the test on SN12C; > 100 µM (inactive) with IGROV-1; 55.7 µM (inactive) in the test with NCI-H522. The GI50 was > 100 µM (inactive) in the test with OVCAR-8; > 100 µM (inactive) in the test with HT-29; > 100 µM (inactive) with NCI-H23; 79.6 µM (inactive) in the test with HOP-92; > 100 µM in the test with HCT-15; > 100 µM (inactive) in the test with UO-31. The GI50 in the test with UACC-62 was 60.1 µM (inactive).

For `Cc1ccc(C2SCC(=O)N2c2ccc(-n3c(-c4ccccc4)nc4ccccc4c3=O)cc2)cc1` (configuration not stated), the GI50 is 15.5 µM (inactive) with T47D; 25.1 µM (inactive) in the test on A549; 12.4 µM (inactive) in the test on SF-539; 22.8 µM (inactive) in the test on OVCAR-4; 18.7 µM (inactive) with 786-0; 12.7 µM (inactive) in the test on PC-3. Moreover, the GI50 with SW-620 was 34.6 µM (inactive); in the test on COLO 205, 30.1 µM (inactive); in the test with MOLT-4, 7.1 µM (inactive); in the test with SN12C, 37.8 µM (inactive); with IGROV-1, 20.5 µM (inactive); in the test with NCI-H522, 13.5 µM (inactive). The GI50 in the test on OVCAR-8 was 16.2 µM (inactive); in the test on HT-29, 17.2 µM (inactive); with NCI-H23, 36.4 µM (inactive); with HOP-92 it was 15.2 µM (inactive); in the test on HCT-15, 6.65 µM; in the test on UO-31, 16.2 µM (inactive). For the same compound, the GI50 in the test with UACC-62 is 11.5 µM (inactive).

Turning to `CN(Cc1nc2c(N)nc(N)nc2nc1N)c1ccc(C(=O)NC(CCC(=O)O)C(=O)O)cc1` (configuration not stated), the GI50 with T47D was > 100 µM (inactive); in the test on SF-539, 0.0378 µM (active); in the test on OVCAR-4 it was > 100 µM (inactive); in the test with 786-0, < 0.01 µM (active); with PC-3 it was < 0.01 µM (active); in the test with SW-620, 0.033 µM (active). For the same compound, the GI50 in the test on COLO 205 was > 100 µM (inactive); with MOLT-4, < 0.0163 µM (active); with SN12C, 0.365 µM (active); in the test with IGROV-1 it was 3.07 µM (inactive); with NCI-H522, > 33.6 µM (inactive); with OVCAR-8 it was 0.0413 µM (active). The GI50 in the test on HT-29 is < 0.01 µM (active); in the test with NCI-H23, 0.544 µM (active); with HOP-92, > 100 µM (inactive); in the test with HCT-15, 0.0708 µM; with UO-31, 0.561 µM (active); in the test with UACC-62, 0.0603 µM (active).

As to `COc1c(Cl)ccc(Cl)c1-c1nnc(-c2c(Cl)c(Cl)c(Cl)c(Cl)c2-c2nc3cc(C(=O)c4ccccc4)ccc3[nH]2)o1`, the GI50 in the test with T47D is > 100 µM (inactive); with A549 it was 45.2 µM (inactive); in the test on SF-539 it was 22.1 µM (inactive); in the test on OVCAR-4 it was 43.5 µM (inactive); in the test on 786-0 it was 73.6 µM (inactive); in the test with PC-3, 46 µM (inactive). For the same compound, the GI50 in the test with SW-620 is 44.1 µM (inactive); with COLO 205, 21.9 µM (inactive); in the test on MOLT-4 it was 26.4 µM (inactive); with SN12C, 64.7 µM (inactive); in the test on IGROV-1 it was 45.5 µM (inactive); with NCI-H522 it was 22.9 µM (inactive). The GI50 with OVCAR-8 was > 100 µM (inactive); with HT-29 it was 57.8 µM (inactive); in the test on NCI-H23, 78.2 µM (inactive); in the test with HOP-92, 53.7 µM (inactive); with HCT-15, 35.7 µM; with UO-31 it was 75.7 µM (inactive).

In the case of `CCOc1ccc(Nc2nc3c(s2)C(=O)c2ccccc2C3=O)cc1`, the GI50 in the test on T47D is 13.6 µM (inactive); in the test on A549 it was 19.5 µM (inactive); in the test with SF-539 it was 10.4 µM (inactive); in the test on OVCAR-4, 0.787 µM (active); in the test on 786-0, 14.2 µM (inactive); in the test with PC-3, 5.56 µM (inactive). Further, the GI50 in the test with SW-620 is 3.21 µM (inactive); in the test with COLO 205, 19.8 µM (inactive); with MOLT-4 it was 5.08 µM (inactive); in the test with SN12C, 3.76 µM (inactive); with IGROV-1, 11.9 µM (inactive); in the test with NCI-H522, 7.5 µM (inactive). For the same compound, the GI50 in the test on NCI-H23 was 8.13 µM (inactive); in the test on HOP-92, 12.3 µM (inactive); in the test with HCT-15, 2.55 µM; in the test on UO-31, 14.4 µM (inactive); in the test with UACC-62, 2.24 µM (inactive).
